Data on two sequences can be found in PMC10782944 (Science immunology, 2023).

One experiment has as its system 10LH. The experiment is described as follows: SPR of peptide-loaded HLA-A*24:02 flowed over 10LH-biotin on a streptavidin chip. The experiment is classed as binding. Particulars: peptide loaded on HLA-A*24:02.
In a further experiment the target is HLA-B*08:01 (Homo sapiens, UniProt P01889, A93T/A95T/D138N/E176V/E187T/K202T/Q94N/R180D/S35A/V36M/Y33D/Y91F). The experiment is described as follows: pHLA complex formation of PHOX2B peptide with HLA-B*08:01. Particulars: HLA-B*08:01, despite NetMHCpan 4.1 prediction.

On to LYLPVRVLI [ATG2A], for which the “dissociation rate (qualitative)” value in the experiment with 10LH was “slow dissociation rate”.
For the sequence QYNPIRTTF [PHOX2B], at HLA-B*08:01, the “formation of stable complexes with the HLA” value is listed as “did not form stable complexes”.
